Measured values reported in patent publication US20020162125A1, “Methods and compositions for the modulation of neurogenic inflammatory pain and physical opiate withdrawal” (priority 2001, published 2002).
Read-outs that look alike come from different tables or passages of the source.

What was measured:
[1] = system: αCGRP −/− and αCGRP +/+ mice; assay: Heroin self-administration (lever press operant task); assay type: in vivo
Protocol: Following acquisition of stable heroin self-administration at 15.0 μg/kg/injection dose (3 consecutive sessions <+/−20% variation, >70% active lever responding), mice were allowed to self-administer heroin at each dose during two daily two-hr sessions in a Latin square dose order. After all heroin doses had been tested, saline vehicle was substituted for heroin until responding stabilized for at least 2 consecutive sessions (data points above “saline”).
All procedures involving animals described here were approved by the Service Vétérinaire of the Canton of Vaud, Lausanne, Switzerland. Six individually housed mice of each genotype (CGRP −/− and +/+) were tested during the light phase (12/12; lights on 7:00 am) in daily sessions 5 days/week. Operant chambers housed in sound-attenuating cubicles with a house light and ventilation fan were equipped with cue lights above two retractable levers, a liquid dipper, syringe pump, liquid swivel and counterbalance arm (swivel and counterbalance arms—Instech, Plymouth Meeting, Pa., USA; all other equipment—MedAssociates, Georgia, Vt., USA). A single lever press on the “active” lever raised the dipper into the cage for 10 s and illuminated the cue light above the lever during reinforcer presentation and for a 1-10 s post-reinforcer Time-out (TO) period, depending on the schedule of reinforcement. […]

[2] = system: αCGRP −/− and αCGRP +/+ mice; conditions: αCGRP −/− mice vs +/+, 30 min after injection
Protocol: The tail flick assay was performed with a tail flick analgesia meter from Columbus Instruments. The cut-off time of the test was 10 seconds.
Morphine or nicotine analgesia were analyzed by using tail flick and hot plate tests. The tests were performed 30 minutes after the injection of drug on αCGRP −/− and +/+ mice.

[3] = system: αCGRP −/− and αCGRP +/+ mice; assay: Morphine tolerance in the tail-flick assay after repeated injections; assay type: in vivo; conditions: αCGRP −/− vs +/+ mice; repeated ip morphine, day 1-2 50 mg/kg, day 3-4 100 mg/kg
Protocol: Daily injections ip of morphine were performed: day 1 and 2, 50 mg/kg, day 3-4, 100 mg/kg. Analgesia morphine was tested. αCGRP −/− and +/+ mice were analyzed in parallel.

[4] = system: αCGRP −/− and αCGRP +/+ mice; assay: Morphine dependence, naloxone-precipitated somatic withdrawal signs
Protocol: Morphine dependence was induced by repeated ip morphine injection for one week: day 1 and 2, 50 mg/kg; day 3 and 4, 100 mg/kg; days 5-7, 100 mg/kg twice/day; day 8, 100 mg/kg in the morning. […] The inventors noted the behavioral withdrawal symptoms (jumping, teeth chattering, tremors, paw tremors, wet dog shakes, ptosis, diarrhea) during 30 minutes after naloxone injection.

[5] = system: αCGRP −/− and αCGRP +/+ mice; conditions: αCGRP −/− mice vs +/+; nicotine 0.5 and 2.0 mg/kg sc; data not shown

## CC(=O)Oc1ccc2c3c1O[C@H]1[C@@H](OC(C)=O)C=C[C@H]4[C@@H](C2)N(C)CC[C@@]341 [heroin]
[1]; both genotypes, P<0.05
  intake (injections per session) at 30 μg/kg/injection vs 7.5 and 15.0 μg/kg/injection doses: differed significantly
[1]; αCGRP −/− vs +/+ mice, 3.75-30 μg/kg/injection iv, FR2
  acquisition or maintenance of self-administration: did not differ

## CN1CC[C@]23c4c5ccc(O)c4O[C@H]2[C@@H](O)C=C[C@H]3[C@H]1C5 [morphine]
[2]; morphine 1 mg/kg ip
  analgesic response in tail-flick (% MPE): attenuated
[2]; morphine 5 mg/kg ip
  analgesic response in tail-flick (% MPE): to a lesser extent
[3]
  progressive decrease in amplitude of antinociceptive response (tolerance), tail-flick: did not differ

## C=CCN1CC[C@]23c4c5ccc(O)c4O[C@H]2C(=O)CC[C@@]3(O)[C@H]1C5 [naloxone]
[4]; naloxone 2 mg/kg ip, mutant and wild type, data not shown
  withdrawal signs in saline-treated control mice: did not induce any withdrawal signs
[4]; αCGRP −/− vs +/+ mice made morphine dependent, naloxone 0.1, 0.2 and 2.0 mg/kg ip
  total withdrawal scores: significantly lower
[4]; αCGRP −/− vs +/+ mice made morphine dependent, precipitated by naloxone
  frequency of each somatic sign of morphine withdrawal (e.g. jumping): reduced

## CN1CCCC1c1cccnc1 (stereo not shown) [nicotine]
[5]
  analgesic effects in hot-plate test: significantly increased
[2]; nicotine 0.5 and 2.0 mg/kg sc
  analgesic effects in tail-flick (% MPE): significantly increased
